Several values for one entry are separate records, joined by “and”; a condition that tells them apart may be missing. Equal entries are not always repeated. *1 amine or outer side, *2 acyl side, *3 side chain or, on linkers, in order; H or OH if unused. Where a SMILES comes first, the peptide text is derived from it. Bridges are numbered along the chain shown (N, C = ends). [ ]: non-standard residue; d: D form. The star is where a group is joined. pTerphenylCO(4''-OnC5H11) = CCCCCOc1ccc(-c2ccc(-c3ccc(C(=O)*)cc3)cc2)cc1; Orn(4R-OH,5R-OH) = O=C([C@H](C[C@@H](O)[C@@H](O)N[*:3])N[*:1])[*:2]; hTyr(3S-OH,4S-OH) = N[C@H](C(=O)O)[C@H](O)[C@@H](O)c1ccc(O)cc1; Pro(3S-OH,4S-Me) = C[C@H]1CN[C@H](C(=O)O)[C@H]1O; Hyp = O=C(O)[C@@H]1C[C@@H](O)CN1
What was measured:
[1] = tested on: C. glabrata strains (WT, pdr1∆ or PDR1 rescue); test: Growth assays to assess compound efflux; assay type: cell-based; settings: for growth relative to Solvent = 100 (Figure S10B): compound 50 µM, three replicates
Method: Cells from a single colony were diluted in 0.85% NaCl before being counted using a Neubauer chamber. […] The effect of fluconazole was tested by titration on these strains under similar conditions.

[2] = tested on: C. glabrata strains expressing WT and mutant Bdf1; test: Growth inhibition in liquid media, C. glabrata lab strains; settings: Exp 1-3; for %Growth: 50 µM, WT BDF1-flag; for OD at 600 nm: Figure S4B
Method: (§2) Growth on Liquid Media with C. glabrata Lab Strains: Cells were grown at 30 °C in SC+M+C‐U medium (SC medium with 5 mM methionine, 0.25 mM cysteine, without uracil) to an OD600 of 0.5–0.8. […] Plates were incubated at 30 °C and OD600 was measured using a Multiskan FC Microplate Photometer (Thermo Fisher).

[3] = tested on: C. glabrata expressing humanized Bdf1 (Brd4 BDs); test: Growth inhibition in liquid media, humanized C. glabrata strains; settings: 50 µM, Exp 1-3
Method: as §2

CgBdf1 BD1 = CgBdf1 BD1 (Candida glabrata, UniProt Q6FWV7); test: HTRF assay, inhibition of H4ac4 peptide binding; design: species or system C. glabrata; settings: Fig 1D/2A original data; single experiments Exp1-3
CgBdf1 BD2 = CgBdf1 BD2 (Candida glabrata, UniProt Q6FWV7); test: biochemical; assay type: binding, C. glabrata; settings: Fig 1D/2A original data; single experiments Exp1-3
[4] = tested on: C. albicans expressing WT Bdf1; test: Galleria fungal infection model, WT strain; assay type: in vivo, Galleria mellonella; design: key to survival event of one larva (1 = death 0 = no death): 1 = death; 0 = no death; settings: Figure 6B
Method: (§1) Galleria mellonella larvae were purchased from Decathlon (La Tronche, France). They were selected in the late larval stages weighing between 300 and 400 mg. Groups of 10 larvae were injected into the right or left last pro‐leg with 10 µl of either PBS, C. albicans suspensions or antifungal drug using an insulin syringe (BDUltra‐Fine 0.3 ml). C. albicans suspensions of the WT and humanized Bdf1 strains were adjusted to 10^6 cells larva^−1. Antifungal drugs (anidulafungin 5 mg kg^−1 or I‐BET726 66 or 44 mg kg^−1) were injected once 30 min before fungal infection. An infected control group received the C. albicans inoculum and the solvent of the drug. A non‐infected control group received only PBS. After inoculation, larvae were placed in Petri dishes and incubated in the dark at 37 °C. The larvae were monitored for 5 days, and survival outcome was determined. For experiments performed at the lower (44 mg kg^−1) dose of IBET‐726, the difference in protection against infection with humanized versus WT C. albicans strains was more evident using the survival data at 40 h rather than at 100 h post‐infection. Larvae were considered dead when no response was observed following touch. All experiments were performed at least 3 times independently. The significance of survival was assessed by a Log‐rank (Mantel‐Cox) test in GraphPad Prism 10.

[5] = tested on: C. albicans expressing humanized Bdf1; test: Galleria fungal infection model, humanized strain; assay type: in vivo, Galleria mellonella; design: key to survival event of one larva (1 = death 0 = no death): 1 = death; 0 = no death; settings: Figure 6C; Bdf1-hBD* strain; Time 8 hours
Method: as §1

[6] = molecular target: S. cerevisiae histone H2A variant H2A.Z fused to LgBiT (UniProt Q12692); test: NanoBiT assay in live S. cerevisiae cells; settings: parent: est. 1.0; read off a plot

CgBdf1 BD1, sequence (Q6FWV7 entry or part of it): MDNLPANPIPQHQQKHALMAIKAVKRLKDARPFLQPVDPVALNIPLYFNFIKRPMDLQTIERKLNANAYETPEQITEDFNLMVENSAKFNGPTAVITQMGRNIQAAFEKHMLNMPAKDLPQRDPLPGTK
CgBdf1 BD2, sequence (Q6FWV7 entry or part of it): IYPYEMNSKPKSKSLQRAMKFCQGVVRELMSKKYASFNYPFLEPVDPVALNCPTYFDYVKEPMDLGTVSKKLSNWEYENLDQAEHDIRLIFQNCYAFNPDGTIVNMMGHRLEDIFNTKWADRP

Molecule | growth relative to Solvent = 100 (Figure S10B) ([1]; PDR1 Rescue) | growth relative to Solvent = 100 (Figure S10B) ([1]; WT) | growth relative to Solvent = 100 (Figure S10B) ([1]; pdr1∆) | %Growth ([2]; Fig 3E) | %Growth ([3]; Fig 3E, BDF1-hBD1-flag) | %Growth ([3]; Fig 3E, BDF1-hBD2-flag) | %Growth ([3]; Fig 3E, humanized BDF1-flag) | further results
CCNC(=O)c1cc2c(-c3cc(C(C)(C)O)ccc3Oc3c(C)cc(F)cc3C)cn(C)c(=O)c2[nH]1 [ABBV744] | 73.7317 and 83.5862 and 73.3043 | 66.394 and 67.598 and 72.0455 | 59.2642 and 64.761 and 73.9837 | 90% and 89% and 91% | 90% and 85% and 80% | 38% and 32% and 37% | 41% and 39% | 
Cc1sc2c(c1C)C(c1ccc(Cl)cc1)=N[C@@H](CC(=O)OC(C)(C)C)c1nnc(C)n1-2 [JQ1, reference compound] |  |  |  | 113% and 106% and 114% | 83% and 74% and 78% | 91% and 86% | 46% and 40% and 43% | pIC50 CgBD1 (CgBdf1 BD1): 5.18 and 5.05 and 5.03; pIC50 CgBD2 (CgBdf1 BD2): 6.15 and 6.10 and 6.13; activity against PDR1 deletion strain versus WT/rescue ([1]; 50 µM (I-BET726 1 µM), 20 h): increased efficacy; %Growth ([2]; Fig 3D): 112.7% and 106.1% and 114.4%; OD at 600 nm ([2]; WT BDF1 strain): 0.392 and 0.386 and 0.385; OD at 600 nm ([2]; bdf1-bd1Δ strain): 0.328 and 0.347 and 0.329; OD at 600 nm ([2]; bdf1-bd2Δ strain): 0.195 and 0.225 and 0.183; %Growth ([3]; Fig 3D, humanized BDF1-flag): 46.0% and 39.6% and 43.2%
COc1cc(OC)c2c(=O)[nH]c(-c3cc(C)c(OCCO)c(C)c3)nc2c1 [RVX208] | 70.1855 and 71.3614 and 82.784 | 80.2726 and 64.9447 and 62.8512 | 66.409 and 64.9859 and 67.3918 | 91% and 96% | 95% and 91% and 88% | 94% and 82% and 93% | 80% and 88% and 77% | 
CCCCCOc1ccc(-c2ccc(-c3ccc(C(=O)N[C@H]4C[C@@H](O)[C@@H](O)NC(=O)[C@@H]5[C@@H](O)[C@@H](C)CN5C(=O)[C@H]([C@@H](C)O)NC(=O)[C@H]([C@H](O)[C@@H](O)c5ccc(O)cc5)NC(=O)[C@@H]5C[C@@H](O)CN5C(=O)[C@H]([C@@H](C)O)NC4=O)cc3)cc2)cc1 [anidula-fungin] ({pTerphenylCO(4''-OnC5H11)}-[Orn(4R-OH,5R-OH)]T[Hyp][hTyr(3S-OH,4S-OH)]T[Pro(3S-OH,4S-Me)]; lactam 1-C) |  |  |  |  |  |  |  | survival event of one larva (1 = death 0 = no death) ([4]; Time 10 hours): 1; survival event of one larva (1 = death 0 = no death) ([4]; Time 35 hours): 1; survival event of one larva (1 = death 0 = no death) ([4]; Time 50 hours): 1
CCCCCOc1ccc(-c2ccc(-c3ccc(C(=O)N[C@H]4C[C@@H](O)[C@@H](O)NC(=O)[C@@H]5[C@@H](O)[C@@H](C)CN5C(=O)[C@H]([C@@H](C)O)NC(=O)[C@H]([C@H](O)[C@@H](O)c5ccc(O)cc5)NC(=O)[C@@H]5C[C@@H](O)CN5C(=O)[C@H]([C@@H](C)O)NC4=O)cc3)cc2)cc1 [anidulafungin] ({pTerphenylCO(4''-OnC5H11)}-[Orn(4R-OH,5R-OH)]T[Hyp][hTyr(3S-OH,4S-OH)]T[Pro(3S-OH,4S-Me)]; lactam 1-C) |  |  |  |  |  |  |  | survival event of one larva (1 = death 0 = no death) [5]: 1
C. glabrata Bdf1-SmBiT expressed in S. cerevisiae Y166F; Y343F |  |  |  |  |  |  |  | ratio to parent [6]: 0.27
